{"source": "patent US11324763B2", "about": "“Malaria transmission prevention agent having rare sugar as effective component thereof and malarial parasite growth regulating agent” (NATIONAL UNIVERSITY CORPORATION KAGAWA UNIVERSITY, priority 2014, dated 2022)", "format_in_all_cases": "in vivo", "key": {"[1]": {"test_system": "Plasmodium berghei parasite in Anopheles stephensi mosquitoes", "assay": "Malaria parasite growth in the body of vector mosquitoes fed with a rare sugar (ookinete, oocyst, sporozoite counts)", "settings": "Example 5, D-allose 100 mM + 440 mM D-fructose or Rare Sugar Sweet diluted 2.3 times"}, "[2]": {"test_system": "Plasmodium berghei transmission from Anopheles stephensi mosquitoes to BALB/c mice", "assay": "Infectivity to mice: malaria transmission by rare-sugar-fed mosquitoes sucking blood of BALB/c mice", "settings": "for onset of malaria in mice: compared with 10 mM group and fructose single feeding group", "excerpt": "20 days after sucking blood of an infected mouse, each group of mosquitoes which had been fed with a rare sugar (D-allose or D-psicose) and a control group of mosquitoes which had not been fed with a rare sugar were made to suck blood of mice, and the infectivity of malaria in mice was examined. As a result, in a group in which the mosquitoes fed with D-allose were made to suck blood, malaria infection was not observed in about 70% of mice, and the infection inhibitory effect of a rare sugar was confirmed.\n(§1) Each of the Anopheles stephensi mosquitoes in the three groups fed with the feed for 20 days in the above Example 1 was made to suck blood of the BALB/c mice (6 weeks of age, female). In each group, 50 mosquitoes were made to suck blood of 5 mice for 1 minute 5 times for each mouse. Every day from 2 days after sucking blood, a smear preparation was prepared from a small amount of blood collected from the tail of each mouse, followed by Giemsa staining, and thereafter, the presence or absence of parasites was examined with a microscope. In some mice, parasites were confirmed 3 days after sucking blood, and thereafter, the incidence rate increased, however, whether or not malaria was developed was determined based on the presence or absence of parasites at the time point of 14 days after sucking blood in the end.\nEach of the Anopheles stephensi mosquitoes in the four groups fed with the feed for 20 days in the above Example 3 was made to suck blood of the BALE/c mice (6 weeks of age, female). In each group, 50 mosquitoes were made to suck blood of 5 mice for 1 minute 5 times for each mouse. Every day from 2 days after sucking blood, a smear preparation was prepared from a small amount of blood collected from the tail of each mouse, followed by Giemsa staining, and thereafter, the presence or absence of parasites was examined with a microscope. Whether or not malaria was developed was determined at the time point of 14 days after sucking blood. […] Also in the 30 mM D-allose feeding group, the incidence rate was 100%, however, malaria was developed one day later as compared with the 10 mM D-ailose feeding group and the fructose single feeding group.\nas §1, with “Example 5” for “Example 1”, “the BALE/c” for “the BALB/c”"}, "[3]": {"test_system": "Plasmodium berghei parasite in Anopheles stephensi mosquitoes", "assay": "Malaria parasite growth in the body of vector mosquitoes fed with a rare sugar (ookinete, oocyst, sporozoite counts)", "settings": "for formation of ookinetes in the midgut of the mosquito: 100 mM rare sugar + 440 mM D-fructose fed, one day after sucking infected blood, vs control", "method": "In order to block malaria transmission, a vector mosquito is fed with a feed containing a rare sugar in advance, and then made to suck blood of a mouse infected with Plasmodium berghei parasite, whereby garaetocytes are ingested into the midgut of the vector mosquito. Thereafter, the feed containing a rare sugar is continuously given to the mosquito, and at the time point when one day has passed after the gametocytes are ingested into the body, the number of ookinetes in the midgut is evaluated, and then, the number of oocysts on the midgut after 10 days, the number of sporozoites in the midgut and the number of sporozoites in the salivary glands after 18 days are evaluated. In this manner, the malaria parasite growth inhibitory effect of the rare sugar was examined.\nFirst, three groups, each of which includes about 200 Anopheles stephensi mosquitoes, were prepared, and in a first group, a mixed aqueous solution of 100 mM D-allose and 440 mM D-fructose was fed, in a second group, a mixed aqueous solution of 100 mM B-psicose and 440 mM D-fructose was fed, and in a third group, an aqueous solution of 440 mM D-fructose was fed, which was used as a control. Each of these aqueous solutions was placed in an Erlenmeyer flask, and a lower end portion of a filter paper was dipped in the aqueous solution, and Anopheles stephensi mosquitoes were fed with the aqueous solution absorbed in the filter paper.\nFurther, red blood cells infected with Plasmodium berghei parasite were intraperitoneally administered to BALB/c mice (6 weeks of age, female), whereby mice infected with malaria were prepared.\nAnopheles stephensi mosquitoes in each group were made to suck each aqueous solution for 3 days, and thereafter, made to suck blood of the mice infected with Plasmodium berghei malaria, whereby the malaria parasites were incorporated in the body of Anopheles stephensi mosquitoes. Subsequently, while continuously giving the fructose aqueous solution containing a rare sugar or the aqueous solution containing only fructose, the number of parasites in the body of the mosquitoes was evaluated at the below-mentioned timings. That is, 24 hours after sucking infected blood, the number of ookinetes in the midgut was counted, the number of oocysts on the midgut was counted after 10 days, and the number of sporozoites in the midgut and in the salivary glands were counted after 18 days, and the results of the three groups were compared.\nThe D-allose concentration dependence for malaria parasite growth blocking effect of a rare sugar was examined. Four groups of Anopheles stephensi mosquitoes were prepared, and in a first group to a third group, mixed aqueous solutions of 10 mM, 30 mM, or 100 mM D-allose and 440 mM D-fructose were fed, respectively, and in a fourth group, an aqueous solution of 440 mM D-fructose was fed. In each of these aqueous solutions, a lower end portion of a filter paper was dipped, and Anopheles stephensi mosquitoes were fed with the aqueous solution absorbed in the filter paper.\nAnopheles stephensi mosquitoes in each group were made to suck each aqueous solution for 3 days, and thereafter, made to suck blood of the mice infected with Plasmodium berghei malaria, whereby the malaria parasites were incorporated in the body of Anopheles stephensi mosquitoes. Thereafter, while continuously giving the aqueous solution containing a rare sugar or the aqueous solution containing only fructose, the number of parasites in the body of the mosquitoes was counted at respective timings. That is, 24 hours after sucking infected blood, the number of ookinetes in the midgut, was counted, the number of oocysts on the midgut was counted after 10 days, and the number of sporozoites in the midgut and in the salivary glands were counted after 18 days, and the results of the four groups were compared. […]"}, "[4]": {"settings": "Example 2, mosquitoes fed 100 mM rare sugar + Fructose 440 mM for 20 days, determined 14 days after sucking blood"}, "[5]": {"settings": "Examples 1 and 2, 100 mM rare sugar + 440 mM D-fructose"}, "[6]": {"settings": "Example 1, 100 mM rare sugar + 440 mM D-fructose, 10 days after sucking blood"}, "[7]": {"settings": "Example 1, 100 mM rare sugar + 440 mM D-fructose, 18 days after sucking blood"}}, "note": "“Also recorded” adds a separate entry of the source."}
{"molecule": "O=C[C@H](O)[C@H](O)[C@H](O)[C@H](O)CO", "note": "[D-allose]", "values": [{"measurement": "number of oocysts suppressed as compared with the control group", "setting": "[1]; 10 days after sucking blood", "result": 100, "unit": "%"}, {"measurement": "number of sporozoites in the midgut suppressed as compared with the control group", "setting": "[1]; 18 days after sucking blood", "result": 100, "unit": "%"}, {"measurement": "number of sporozoites in the salivary glands suppressed", "setting": "[1]; 18 days after sucking blood", "result": 100, "unit": "%"}, {"measurement": "Incidence rate after sucking blood (%) (mice which developed malaria/mice which had their blood sucked)", "setting": "[2]; [4]", "result": 29, "unit": "%"}, {"measurement": "Incidence rate after sucking blood (%) (mice which developed malaria/mice which had their blood sucked)", "setting": "[2]; Example 2, mosquitoes fed 100 mM rare sugar + Fructose 440 mM for 20 days, determined 14 days after sucking blood, listed as Allose", "result": "29 (2/7) %"}, {"measurement": "number of sporozoites inoculated into the mice when having their blood sucked", "setting": "[2]; Example 4, 30 mM D-allose feeding group, inferred from onset one day later", "result": "about one-tenth"}, {"measurement": "malaria transmission / development of malaria in mice", "setting": "[2]; Example 4, 100 mM D-allose + D-fructose", "result": "did not develop malaria"}, {"measurement": "incidence rate suppressed", "setting": "[2]; Example 4, 100 mM D-allose feeding group", "result": 100, "unit": "%"}, {"measurement": "Incidence rate after sucking blood (%) (mice which developed malaria/mice which had their blood sucked)", "setting": "[2]; Example 4, Allose 10 mM + Fructose 440 mM, 14 days after sucking blood", "result": 100, "unit": "%"}, {"measurement": "Incidence rate after sucking blood (%) (mice which developed malaria/mice which had their blood sucked)", "setting": "[2]; Example 4, Allose 10 mM + Fructose 440 mM, 14 days after sucking blood, listed as Allose", "result": "100 (5/5) %"}, {"measurement": "Incidence rate after sucking blood (%) (mice which developed malaria/mice which had their blood sucked)", "setting": "[2]; Example 4, Allose 30 mM + Fructose 440 mM, 14 days after sucking blood", "result": 100, "unit": "%"}, {"measurement": "Incidence rate after sucking blood (%) (mice which developed malaria/mice which had their blood sucked)", "setting": "[2]; Example 4, Allose 30 mM + Fructose 440 mM, 14 days after sucking blood, listed as Allose", "result": "100 (5/5) %"}, {"measurement": "onset of malaria in mice", "setting": "[2]; Example 4, Allose 30 mM + Fructose 440 mM", "result": "one day later"}, {"measurement": "onset of malaria in mice", "setting": "[2]; Example 4, Allose 30 mM + Fructose 440 mM, listed as Allose", "result": "The onset was delayed"}, {"measurement": "Incidence rate after sucking blood (%) (mice which developed malaria/mice which had their blood sucked)", "setting": "[2]; Example 4, Allose 100 mM + Fructose 440 mM, 14 days after sucking blood", "result": "0 (0/5) %"}, {"measurement": "Incidence rate after sucking blood (%) (mice which developed malaria/mice which had their blood sucked)", "setting": "[2]; Example 6, Allose 100 mM + Fructose 440 mM or Rare Sugar Sweet diluted 2.3 times, 14 days after sucking blood", "result": "0 (0/5) %"}, {"measurement": "malaria transmission (transmission-blocking effect)", "setting": "[2]; Example 6, D-allose 100 mM + D-fructose or Rare Sugar Sweet diluted 2.3 times", "result": "completely inhibited; also recorded: completely transmission-blocking effect"}, {"measurement": "malaria transmission (transmission-blocking effect)", "setting": "[2]; [5]", "result": "significantly suppressed; also recorded: completely blocks"}, {"measurement": "mice in which malaria infection was not observed", "setting": "[2]; mosquitoes fed with rare sugar, 20 days after sucking blood of an infected mouse", "result": "about 70%"}, {"measurement": "formation of ookinetes in the midgut of the mosquito", "setting": "[3]; Example 1", "result": "not suppressed; also recorded: slight"}, {"measurement": "formation of oocysts on the midgut", "setting": "[3]; [6]", "result": "suppressed"}, {"measurement": "number of oocysts suppressed as compared with the control group", "setting": "[3]; [6]", "result": 95, "unit": "%"}, {"measurement": "formation of sporozoites in the midgut", "setting": "[3]; [7]", "result": "suppressed"}, {"measurement": "formation of sporozoites in the salivary glands", "setting": "[3]; [7]", "result": "suppressed"}, {"measurement": "number of sporozoites in the midgut suppressed as compared with the control group", "setting": "[3]; [7]", "result": 98.7, "unit": "%"}, {"measurement": "number of sporozoites in the salivary gland suppressed as compared with the control group", "setting": "[3]; [7]", "result": 98.5, "unit": "%"}, {"measurement": "number of sporozoites in the salivary glands", "setting": "[3]; Example 3, 30 mM D-allose feeding group, 18 days after sucking blood", "result": "significantly decreased"}, {"measurement": "number of oocysts", "setting": "[3]; Example 3, D-allose 10 mM to 100 mM + 440 mM D-fructose, 10 days after sucking blood", "result": "suppressed in a D-allose concentration-dependent manner"}, {"measurement": "growth into ookinetes in the midgut", "setting": "[3]; Example 3, D-allose 10 mM to 100 mM + 440 mM D-fructose, one day after sucking blood", "result": "suppressed in a concentration-dependent manner"}, {"measurement": "growth of oocysts on the midgut", "setting": "[3]; Example 3, D-allose 100 mM + 440 mM D-fructose, 10 days after sucking blood", "result": "almost completely suppressed"}, {"measurement": "formation of sporozoites (midgut and salivary glands)", "setting": "[3]; Example 3, D-allose 100 mM + 440 mM D-fructose, 18 days after sucking blood", "result": "completely suppressed"}, {"measurement": "suppression of the formation of ookinetes in the midgut", "setting": "[3]; Example 5, D-allose 100 mM + 440 mM D-fructose or Rare Sugar Sweet diluted 2.3 times, one day after sucking blood", "result": "slight"}]}
{"molecule": "O=C(CO)[C@H](O)[C@H](O)[C@H](O)CO", "note": "[D-psicose]", "values": [{"measurement": "Incidence rate after sucking blood (%) (mice which developed malaria/mice which had their blood sucked)", "setting": "[2]; [4]", "result": 100, "unit": "%"}, {"measurement": "Incidence rate after sucking blood (%) (mice which developed malaria/mice which had their blood sucked)", "setting": "[2]; Example 2, mosquitoes fed 100 mM rare sugar + Fructose 440 mM for 20 days, determined 14 days after sucking blood, listed as Psicose", "result": "100 (6/6) %"}, {"measurement": "malaria transmission (transmission-blocking effect)", "setting": "[2]; [5]", "result": "not observed"}, {"measurement": "formation of ookinetes in the midgut of the mosquito", "setting": "[3]; Example 1", "result": "suppressed to some extent; also recorded: somewhat suppressed"}, {"measurement": "formation of oocysts on the midgut", "setting": "[3]; [6]", "result": "slightly promoted"}, {"measurement": "formation of sporozoites in the salivary glands", "setting": "[3]; [7]", "result": "slightly exceeding that in the control"}, {"measurement": "number of sporozoites in the midgut suppressed as compared with the control group", "setting": "[3]; [7]", "result": "about 60%"}]}
